Holding throughout (assay type): cell-based, human
Assay [1] relates to VEGF A.
The subject of assay [2] is VEGF B.
The test system of assay [3] is VEGF C.

Here are results for two compounds from patent US7053046B2 (priority 2001, dated 2006).

Regarding `[Cl-].[Cl-].[Co+2]` [CoCl2], the “VEGF A gene expression ratio treated/untreated (up)” value in assay [1] is “up 3.4 x”. In addition, the “VEGF B gene expression ratio treated/untreated (up)” value in assay [2] is “up 1.4 x”. For the same compound, the “VEGF C gene expression ratio treated/untreated (up)” value in assay [3] was “up 3.0 x”.

As to “YGRKKRRQRRR-DLDLEMLA(Hyp)YIPMDDDFQL [ODD peptide]”, the “VEGF A gene expression ratio treated/untreated (up)” value in assay [1] was “up 3.2 x”. In assay [2], the “VEGF B gene expression ratio treated/untreated (up)” value is recorded as “up 1.4 x”. In addition, the “VEGF C gene expression ratio treated/untreated (up)” value in assay [3] is reported as “up 4.4 x”.
